Patent US8975290B2, “Methods and compositions for enhancing an immune response, blocking monocyte migration, amplifying vaccine immunity and inhibiting tumor growth and metastasis” (Colorado State University Research Foundation, priority 2013, dated 2015)
Where two headings read alike, the source gives them in different places.

What was measured:
[1] = cited from earlier work
[2] = system: ovalbumin; assay: Anti-ovalbumin antibody titers after ovalbumin vaccination (humoral immunity); type: in vivo; conditions: mice, boost at day 10, vs vaccine only
Method: Briefly, two groups of mice (n=5) were vaccinated with 5 μg of ovalbumin. […] The second group of mice received no additional treatment following vaccination. Second vaccinations were repeated 10 days following the initial vaccinations.
To assess the effects of Ondansetron on humoral immunity, mice were treated with Ondansetron at the time of vaccination. Briefly, two groups of mice (n=4 per group) were vaccinated subcutaneously with 1 μg of ovalbumin in a liposomal adjuvant. The first group of mice received 3 mg/kg Ondansetron via i.p. injection at the time of vaccination, and at 12, 24, and 36 hours following vaccination. The second group of mice received no additional treatment following vaccination. A third group of mice received neither the vaccine nor the Ondansetron. Second vaccinations were repeated for the first two groups of mice 10 days following the initial vaccinations, and second Ondansetron treatments were repeated for the groups as described for the first cycle of vaccination.

[3] = system: monocytes; assay: Boyden chamber assay on blood samples of Losartan-treated dogs; type: in vivo
[4] = system: dog monocytes; assay: Boyden chamber assay, dog monocyte migration in response to a CCL2 (MCP-1) gradient; type: cell-based
Method: (§1) The Boyden chamber assay is based on a chamber of two medium-filled compartments separated by a microporous membrane. In general, cells are placed in the upper compartment and are allowed to migrate through the pores of the membrane into the lower compartment, in which chemotactic agents are present. After an appropriate incubation time, the membrane between the two compartments is fixed and stained, and the number of cells that have migrated to the lower side of the membrane is determined. Experiments using this assay were performed as described in Mitchell et al. (2012) Int. Immunopharmacol. 15: 357-363 to assess the migration of monocytes.

[5] = system: spleen cells; assay: IFNγ secretion of spleen cells in response to ovalbumin restimulation (cellular immunity); type: in vivo; conditions: vaccinated mice treated concurrently with Losartan; restimulated in vitro 72 hours with 5 μg/ml ovalbumin; vs vaccine only; p<0.05 (FIG. 11)
Method: Two groups of mice were immunized as noted in Example 7 above. To determine whether cellular immunity was enhanced in the Losartan-treated mice, mice from both the first and second groups were euthanized, and their spleen cells were assayed to determine IFNγ secretion levels in response to ovalbumin restimulation. Splenectomies and restimulation assays for cellular immune responses were performed as previously described (Mitchell et al. (2012), J. Immunology, supra). Spleen cells were restimulated in vitro for 72 hours with 5 μg/ml ovalbumin protein.

[6] = system: inflammatory monocytes; assay: Footpad inflammation-induced monocyte migration assay (flow cytometry of draining popliteal lymph nodes); type: in vivo; conditions: mice, 24 h after vaccination, vs vaccine only
Method: Footpad inflammation-induced monocyte migration assays were performed as previously described (Mitchell et al. (2012), J. Immunology 189: 5612-5621) to determine whether Ondansetron inhibits monocyte migration in vivo in mice. Briefly, two groups of mice (n=4 per group) were injected with 50 μl of liposomal vaccine adjuvant in one footpad. The first group of mice was treated by injection of 3 mg/kg Ondansetron administered IP at the time of footpad injection and the Ondansetron injections were repeated 12, 24, and 36 hours following footpad injection. […] The third group received neither the vaccine nor the Ondansetron. Inflammatory monocyte migration to the draining popliteal lymph nodes was assessed in all three groups of mice via flow cytometry (as described in Mitchell et al. (2012), J. Immunology, supra) 24 hours following vaccination.
Briefly, two groups of mice (n=4 per group) were vaccinated in the right rear footpad. […] Inflammatory monocyte migration to the draining popliteal lymph nodes was assessed in all three groups of mice via flow cytometry (as described in Mitchell et al. (2012), J. Immunology, supra) 24 hours following vaccination.

[7] = system: human monocyte cell line THP-1; assay: Boyden chamber assay, human monocyte migration in response to a CCL2 (MCP-1) gradient; type: cell-based; conditions: dose dependent, FIG. 1 (Losartan), FIG. 3 (Ondansetron)
Method: as §1, with “monocytes. […] A Boyden chamber assay was performed (as described in Mitchell et al. (2012) Int. Immunopharmacol, supra) to assess the migration of human monocytes (i.e., the human monocyte cell line THP-1) in response to a CCL2 (MCP-1) gradient and to assess the ability of Ondansetron to inhibit monocyte migration in vitro.” for “monocytes.”

[8] = system: A20-HA tumors; assay: A20 mouse B-cell lymphoma model, tumor vaccine responses; type: in vivo, mice
Method: The A20 mouse B-cell lymphoma model was used to assess the effects of Ondansetron on tumor vaccine responses. Briefly, two groups of mice (n=5 per group) with established d3 A20-HA tumors (i.e., tumors expressing HA) were vaccinated weekly for 3 weeks with HA antigen (1 μg per mouse in liposome adjuvant), either without or with concurrently administered ondansetron (3 mg/kg i.p., administered 4 times at 12 h intervals). A third group of mice received neither the HA nor the Ondansetron. Tumor measurements were made using calipers every 2-3 days. Mice were sacrificed when their tumors reached a diameter of 1.5 cm.
Labeled anti-CD11b antibodies were used to quantitate the numbers of infiltrating CD11b+ monocyte/macrophages in the tumor tissues.

[9] = Table 2, Comparison of ARB Pharmacokinetics

In the case of CCCCC1=NC2(CCCC2)C(=O)N1Cc1ccc(-c2ccccc2-c2nnn[nH]2)cc1 [Irbesartan], the “Biological Half-Life” value [1, 9] is listed as 11-15 hours.

In the case of CCCCc1nc(Cl)c(CO)n1Cc1ccc(-c2ccccc2-c2nn[nH]n2)cc1 [Losartan], the anti-ovalbumin antibody titers ([2]; 5 μg ovalbumin, 30 mg/kg Losartan at vaccination and 12, 24, 36 h after, p<0.05 (FIG. 9)) is reported as “significantly higher anti-ovalbumin antibody titers”, the “monocyte migration in blood samples after treatment” value ([3]; 3 dogs with cancer, 2 mg/kg/day for two weeks, pooled data, FIG. 8) is reported as “Monocyte migration was inhibited” and the “monocyte migration in blood samples after treatment” value ([3]; healthy dogs, 2 mg/kg/day for 48 hours, vs before treatment, FIG. 7) is reported as “significantly inhibited”. For the same molecule, the “canine monocyte migration in vitro” value ([4]; CCL2 (MCP-1) gradient, dose dependent, FIG. 2) was “potently blocked canine monocyte migration in vitro in a dose dependent manner”, the “canine monocyte migration in the presence of MCP-1” value ([4]; concentrations of 1 μg/ml and 10 μg/ml) was “blocked canine monocyte migration even in the presence of MCP-1” and the “IFNγ production by spleen cells” value [5] was “produced significantly more IFNγ”. For the same molecule, the “migration of inflammatory monocytes to the draining lymph nodes” value ([6]; 30 mg/kg Losartan at injection and 12 h after, p<0.05 (FIG. 6)) was “significantly reduced” and the “human monocyte migration (THP-1) in vitro” value [7] was “potently blocked human monocyte migration (THP-1) in vitro in a dose dependent manner”.

For CCCc1nc(C(C)(C)O)c(C(=O)O)n1Cc1ccc(-c2ccccc2-c2nnn[nH]2)cc1 [Olmesartan], the Bioavailability [1, 9] is given as 29% and the “Biological Half-Life” value [1, 9] is given as 14-16 hours.

With Cc1nccn1CC1CCc2c(c3ccccc3n2C)C1=O (centres unmarked) [Ondansetron] the anti-ovalbumin antibody titers ([2]; 1 μg ovalbumin s.c. in liposomal adjuvant, 3 mg/kg Ondansetron i.p. at vaccination and 12, 24, 36 h after, p<0.05 (FIG. 10)) was “significantly higher anti-ovalbumin antibody titers”, the “infiltrating CD11b+ monocyte/macrophages in tumor tissues” value ([8]; immunohistochemistry, vaccine with Ondansetron vs vaccine alone, FIG. 13) was “markedly fewer monocyte/macrophages” and the tumor growth rates ([8]; mice with A20-HA tumors, HA vaccine weekly for 3 weeks with ondansetron 3 mg/kg i.p. 4 times at 12 h intervals, vs vaccine only, FIG. 12) was “significantly reduced”. For the same molecule, the Biological Half-Life ([1]; text b221) was “about 3.9 hours”, the “migration of inflammatory monocytes to the draining lymph nodes” value ([6]; 3 mg/kg Ondansetron IP at footpad injection and 12, 24, 36 h after, p<0.001 (FIG. 4, 5)) was “significantly reduced” and the “human monocyte migration (THP-1) in vitro” value [7] was “potently blocked THP-1 monocyte migration in vitro in a dose dependent manner”.

In the case of CCOc1nc2cccc(C(=O)O)c2n1Cc1ccc(-c2ccccc2-c2nnn[nH]2)cc1 [Candesartan], the Bioavailability [1, 9] is given as 15% and the “Biological Half-Life” value [1, 9] is given as 9 hours.

For CCCc1nc2c(C)cc(-c3nc4ccccc4n3C)cc2n1Cc1ccc(-c2ccccc2C(=O)O)cc1 [Telmisartan], the Bioavailability [1, 9] is given as 42-58%.
